Source: patent publication US5683989A, “Treatment of ischemias by administration of 2,N^6 -substituted adenosines” (Novo Nordisk A/S, priority 1995, dated 1997)

What was measured:
A1 receptor = conditions: literature, in words; cited from earlier work
adenosine A1 receptor = target: T1, adenosine A1 receptor (Rattus norvegicus, UniProt P25099); experiment: In vitro binding to adenosine A1 receptor, radioligand [^3 H]-(R)-PIA; conditions: single determinations only; for Ki: [^3 H]-(R)-PIA radioligand; for Ratio A2 /A1: ratio of A2 Ki to A1 Ki
T1 construct: from tissue
T1 sequence (P25099 1-326): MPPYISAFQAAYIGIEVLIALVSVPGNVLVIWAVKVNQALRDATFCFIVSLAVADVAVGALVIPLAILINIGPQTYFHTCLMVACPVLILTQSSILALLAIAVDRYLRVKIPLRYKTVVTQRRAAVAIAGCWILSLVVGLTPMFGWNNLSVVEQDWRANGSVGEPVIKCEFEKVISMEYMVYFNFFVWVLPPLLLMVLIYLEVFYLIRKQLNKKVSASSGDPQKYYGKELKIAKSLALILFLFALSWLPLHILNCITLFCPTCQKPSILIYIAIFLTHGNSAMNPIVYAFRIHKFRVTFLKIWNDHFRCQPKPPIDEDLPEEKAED
Excerpt: (§1) Evaluation of in vitro binding to adenosine A1 and A2 receptors
(§2) The methods used are described fully in European Journal of Pharmacology, 1993, 242, 221-228.

A2 receptor = target: T2, A2 receptor (Rattus norvegicus, UniProt P30543); experiment: In vitro binding to adenosine A2 receptor, radioligand [^3 H]-CGS 21680; conditions: [^3 H]-CGS 21680 radioligand; single determinations only
T2 construct: from tissue
Excerpt: as §1, §2

T2 sequence (P30543 whole entry): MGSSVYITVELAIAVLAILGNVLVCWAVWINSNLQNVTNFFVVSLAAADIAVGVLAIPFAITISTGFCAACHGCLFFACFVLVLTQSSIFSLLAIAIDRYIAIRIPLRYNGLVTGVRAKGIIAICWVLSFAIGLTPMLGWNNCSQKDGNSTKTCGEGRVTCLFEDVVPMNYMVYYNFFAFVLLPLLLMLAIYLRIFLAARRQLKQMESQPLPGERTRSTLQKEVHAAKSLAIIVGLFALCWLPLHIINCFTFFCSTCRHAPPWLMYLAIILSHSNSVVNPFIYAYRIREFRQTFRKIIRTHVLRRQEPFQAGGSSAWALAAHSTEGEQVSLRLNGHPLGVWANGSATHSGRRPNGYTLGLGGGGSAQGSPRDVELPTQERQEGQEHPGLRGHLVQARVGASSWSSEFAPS

Row | Ki (adenosine A1 receptor) | Ratio A2 /A1 (adenosine A1 receptor) | Ki (A2 receptor) | Structure (SMILES) | selectivity for the A1 receptor over the A2 receptor (A1 receptor)
1 | 0.014 µM | 355 | 4.97 µM | C[C@H](CSc1n[nH]c(-c2ccccc2)n1)Nc1nc(Cl)nc2c1ncn2[C@@H]1O[C@H](CO)[C@@H](O)[C@H]1O [Example 27, 2-Chloro-N-{(R)-1-[5-phenyl-(1,2,4-triazol-3-yl)]thio-2-propyl}adenosine] | –
2 | 0.0045 µM | 38 | 0.17 µM | C[C@H](CSc1cccs1)Nc1nc(Cl)nc2c1ncn2[C@@H]1O[C@H](CO)[C@@H](O)[C@H]1O [Example 23, 2-Chloro-N-[(R)-1-(2-thienyl)thio-2-propyl]adenosine] | –

The next lines start with the compound.

Row | Structure (SMILES) | Ki (adenosine A1 receptor) | Ratio A2 /A1 (adenosine A1 receptor) | Ki (A2 receptor) | selectivity for the A1 receptor over the A2 receptor (A1 receptor)
3 | OC[C@H]1O[C@@H](n2cnc3c(NC4CCCC4)nc(Cl)nc32)[C@H](O)[C@@H]1O [CCPA, 2-chloro-N-cyclopentyladenosine] | – | – | – | most selective for the A1 receptor over the A2 receptor
4 | CC[C@H](CSc1nc2ccccc2s1)Nc1nc(Cl)nc2c1ncn2[C@@H]1O[C@H](CO)[C@@H](O)[C@H]1O [Example 15, N-[(R)-1-(2-Benzothiazolyl)thio-2-butyl]-2-chloroadenosine] | 0.007 µM | 136 | 0.95 µM | –
5 | C[C@H](CSc1nc2ccccc2s1)Nc1nc(F)nc2c1ncn2[C@@H]1O[C@H](CO)[C@@H](O)[C@H]1O [Example 13, N-[(R)-1-(2-Benzothiazolyl)thio-2-propyl]-2-fluoroadenosine] | 0.0034 µM | 756 | 2.57 µM | –
6 | C[C@H](CSc1nc2cc(Cl)ccc2s1)Nc1nc(Cl)nc2c1ncn2[C@@H]1O[C@H](CO)[C@@H](O)[C@H]1O [Example 22, 2-Chloro-N-[(R)-1-(5-chloro-2-benzothiazolyl)thio-2-propyl]adenosine] | 0.01 µM | 100 | 1 µM | –
7 | Cc1nnc(SC[C@@H](C)Nc2nc(Cl)nc3c2ncn3[C@@H]2O[C@H](CO)[C@@H](O)[C@H]2O)s1 [Example 3, 2-Chloro-N-{(R)-1-[5-methyl-(1,3,4-thiadiazol-2-yl)]thio-2-propyl}adenosine] | 0.009 µM | 110 | 0.99 µM | –
